Patent US7750165B2, “Metaxalone polymorphs” (Fresenius Kabi Oncology Limited, priority 2005, dated 2010)
“And” between values parts separate entries of the source, which are not always exact repeats. Equal values may be shown once. Read-outs that look alike come from different tables or passages of the source. Values belong to the compound of their own block, whether it stands above or below them.

Assay: Bioavailability and pharmacokinetic study of crystalline Forms A and B of metaxalone, oral suspension, plasma by HPLC
Format: in vivo, female wistar rat
Set-up: AUCin / AUCt / AUCt Mean / AUCin Mean: unit not given here
Protocol: A study was undertaken to compare the bioavailability and pharmacokinetic profile of the two crystalline Forms A and B of metaxalone in female wistar rat under fasting condition. A suspension of metaxalone form A and Form B having a concentration of 15.0 mg/ml was prepared using 0.1% Tween-80 in 0.25% carboxy methyl cellulose (CMC). The formulation was used for dosing as such without any further dilution.
Twelve rats were taken, out of which six rats were administered form A crystals of Metaxalone and other six rats were adminstered form B crystals of Metaxalone, in different injection volumes based on body weight, resulting in dose of 150 mg/kg. A total thirteen (0.6 ml) blood samples were collected from each rat into prelabeled tubes containing EDTA solution, by retro-orbital bleeding under mild ether anesthesia. The blood samples were withdrawn at time points of 0 (prior to dosing), 15, 30 mins, 1, 1.5, 2.0, 4.0, 6.0, 8.0, 10.0, 12.0, 24 and 48 hrs post administration. The samples were centrifuged at 4000 rpm for 10 mins at room temperature. Seperated plasma samples were transferred into prelabeled tubes and stored upright in cyrobox. These cyroboxes were then transfered into a deep freezer maintained at −20° C. for the final storage until the completion of analysis.
HPLC system of Shimadzu LC—2010CHT series equipped with shimadzu UV-VIS detector, analytical column YMC Pack ODS C-18, 5 μm, (150×4.6 mm) and a data acquisition system (LC solution software) were used for the quantitative determination of metaxalone in rat plasma.
The results were plotted using the conventional AUC method to calculate pharmacokinetic ters (Cmax, Tmax and AUC (area under the curve, a measure of total bioavailability). The pharmacokinetic results for the crystalline form A and B are summarized in Table-V

[1] = Form A relative to Form B, per rat number 1-6, oral 150 mg/kg, 150 mg/kg
[2] = Mean of N=6 rats, female wistar rat, oral 150 mg/kg, 150 mg/kg
[3] = female wistar rats, fasting, oral 150 mg/kg, plasma, Mean ± SD, 150 mg/kg
[4] = female wistar rats, fasting, oral 150 mg/kg, plasma, Mean ± SD, listed as Metaxalone- Form A, 150 mg/kg
[5] = female wistar rats, oral 150 mg/kg
[6] = female, Wistar, rat, plasma, po, 150 mg/kg, female wistar rats, fasting, oral 150 mg/kg, Mean ± SD
[7] = individual rats 1-6, female wistar rat, oral 150 mg/kg, 150 mg/kg
[8] = individual rats 1-6, female wistar rat, oral 150 mg/kg, 150 mg/kg, in h
[9] = individual rats 1-6, female wistar rat, oral 150 mg/kg, 150 mg/kg, in µg/mL
[10] = female wistar rats, fasting, oral 150 mg/kg, plasma, Mean ± SD (second Table IV), listed as Metaxalone- Form B, 150 mg/kg
[11] = female wistar rats, fasting, oral 150 mg/kg, plasma, Mean ± SD, listed as Metaxalone- Form B, 150 mg/kg

AUCin Mean [2]: 451.461
Clobs [3]: 6.164 ± 2.122 mL/min/kg
Clobs (female wistar rats, fasting, oral 150 mg/kg, plasma, Mean ± SD, listed as Form-A, 150 mg/kg): 6.164 ± 2.122 mL/min/kg
Clobs [4]: 6.164 ± 2.122 mL/min/kg
Lambda z [4]: 0.119 ± 0.07 h⁻¹
Vzobs [4]: 3.46602 ± 0.9788 L/kg
bioavailability, based on the observed Cmax values [5]: bioavailable
AUC(0-t) (female, Wistar, rat, plasma, po, 150 mg/kg, Mean of N=6 rats, female wistar rat, oral 150 mg/kg, read-out: AUCt Mean): 325 µg·h/mL
Cmax (female, Wistar, rat, plasma, po, 150 mg/kg, Mean of N=6 rats, female wistar rat, oral 150 mg/kg, read-out: Cmax Mean): 37700 ng/mL
Tmax (female, Wistar, rat, plasma, po, 150 mg/kg, Mean of N=6 rats, female wistar rat, oral 150 mg/kg, read-out: Tmax Mean): 1.5 h
AUC(0-inf) [6]: 451 ± 166 µg·h/mL
MRT last [6]: 5.49 ± 1.8 h
half-life [6]: 7.25 ± 2.9 h
AUC(0-inf) (female, Wistar, rat, plasma, po, 150 mg/kg, female wistar rats, fasting, oral 150 mg/kg, Mean ± SD (second Table IV)): 451 ± 166 µg·h/mL
AUC(0-t) (female, Wistar, rat, plasma, po, 150 mg/kg, female wistar rats, fasting, oral 150 mg/kg, plasma, Mean ± SD (second Table IV), read-out: AUClast): 325 ± 110 µg·h/mL
AUC(0-t) (female, Wistar, rat, plasma, po, 150 mg/kg, female wistar rats, fasting, oral 150 mg/kg, plasma, Mean ± SD, read-out: AUClast): 325 ± 110 µg·h/mL
Cmax (female, Wistar, rat, plasma, po, 150 mg/kg, female wistar rats, fasting, oral 150 mg/kg, plasma, Mean ± SD, read-out: Cmax): 37700 ± 4100 ng/mL
Tmax (female, Wistar, rat, plasma, po, 150 mg/kg, female wistar rats, fasting, oral 150 mg/kg, plasma, Mean ± SD, read-out: Tmax): 1.5 ± 0.3 h
MRT last (female, Wistar, rat, plasma, po, 150 mg/kg, female wistar rats, oral 150 mg/kg, mean ± SD, unit inferred): 5.49 ± 1.8 h
Cmax (female, Wistar, rat, plasma, po, 150 mg/kg, individual rats 1-6, female wistar rat, oral 150 mg/kg, read-out: Cmax): 43100 ng/mL
Tmax [8]: 2.00 and 1.00
SMILES: Cc1cc(C)cc(OCC2CNC(=O)O2)c1 (single isomer, unassigned) [Form A, 5-(3′,5′-dimethylphenoxy)methyl-2-oxazolidinone]
AUCin A/B % [1]: 328.5% and 110.5% and 69.0% and 37.7% and 291.3% and 120.9%
AUCt A/B % [1]: 196.7% and 84.4% and 73.7% and 40.4% and 255.3% and 88.1%
Cmax A/B % [1]: 111.2% and 77.4% and 89.4% and 90.9% and 103.7% and 85.0%
AUCin [7]: 646.72 and 398.52 and 380.50 and 267.03 and 667.12 and 348.88
AUCt [7]: 371.39 and 259.03 and 283.70 and 252.67 and 530.31 and 251.62
Cmax [9]: 33.77 and 38.46 and 39.32 and 39.57 and 31.90

AUCt Mean [2]: 333.329
Tmax Mean (Mean of N=6 rats, female wistar rat, oral 150 mg/kg, 150 mg/kg, in h): 2.083
Cmax Mean (Mean of N=6 rats, female wistar rat, oral 150 mg/kg, 150 mg/kg, in µg/mL): 40.735
AUCinf [10]: 389.07 ± 200.6 µg·h/mL
AUClast [10]: 333.32 ± 159.9 µg·h/mL
AUCinf [3]: 389.07±200.6 hrμg/ml
AUClast [3]: 333.32±159.9 hrμg/ml
Clobs [3]: 7.8787 ± 3.578 mL/min/kg
Cmax [3]: 40730 ± 2800 ng/mL
Half Life [3]: 4.49 ± 1.7 h
MRTlast [3]: 5.50 ± 1.8 h
Tmax [3]: 2.08 ± 1.4 h
Clobs [11]: 7.8787 ± 3.578 mL/min/kg
Lambda z [11]: 0.172 ± 0.05 h⁻¹
Vzobs [11]: 2.65418 ± 0.4222 L/kg
bioavailability, based on the observed Cmax values [5]: bioavailable
MRTlast (female wistar rats, oral 150 mg/kg, plasma, mean ± SD, unit not given, 150 mg/kg, in h): 5.50±1.8
AUC (female, Wistar, rat, plasma, po, 150 mg/kg, Mean of N=6 rats, female wistar rat, oral 150 mg/kg, read-out: AUCin Mean): 389 µg·h/mL
Cmax (female, Wistar, rat, plasma, po, 150 mg/kg, female wistar rats, oral 150 mg/kg, plasma, mean ± SD, no unit printed for this value, read-out: mean Cmax): 40700 ± 2800 ng/mL
Tmax [8]: 1.00 and 4.00 and 1.50
SMILES: Cc1cc(C)cc(OCC2CNC(=O)O2)c1 (single isomer, unassigned) [Form B, 5-(3′,5′-dimethylphenoxy)methyl-2-oxazolidinone]
AUCin [7]: 196.86 and 360.78 and 551.70 and 707.50 and 229.04 and 288.56
AUCt [7]: 188.83 and 306.89 and 384.99 and 626.04 and 207.73 and 285.51
Cmax [9]: 38.75 and 43.65 and 43.04 and 43.27 and 38.16 and 37.54
